# Assay results from patent US5654303A, “Alkyl amine derivatives of substituted quinoxaline 2,3-diones as glutamate receptor antagonists” (Warner-Lambert Company, priority 1995, dated 1997).
# How the values were obtained:
# [1] = target: kainate site (non-NMDA receptor); assay: Kainate site (non-NMDA receptor) binding (London and Coyle), Table 1 'KA'
# [2] = target: AMPA receptors; assay: AMPA receptor binding (Honore et al.), Table 1
# [3] = test system: CF-1 strain mice; assay: maximal electroshock (MES) assay in mice; type: in vivo; conditions: IV
# Text: Additionally, a preliminary indicator of in vivo CNS activity related to anticonvulsant activity and potential neuroprotection, is a maximal electroshock (MES) assay in CF-1 strain mice (20-25 g) performed with corneal electrodes by conventional methods as described previously (Krall, et al., Epilepsia, 1988;19:409-428).
# MES (IV) Data for Compound 1 from Table 1 [drawing 23]
Structure (SMILES),IC50 KA [1] [µM],IC50 [2] [µM],also measured
CCCN(CCC)Cc1c(C)c([N+](=O)[O-])cc2[nH]c(=O)c(=O)[nH]c12 [Compound 3],24.93,1.63,–
Cc1c([N+](=O)[O-])cc2[nH]c(=O)c(=O)[nH]c2c1CN(C)C1CCCCC1 [Compound 6],5.331,3.23,–
CCCCN(CCCC)Cc1c(C)c([N+](=O)[O-])cc2[nH]c(=O)c(=O)[nH]c12 [Compound 4],20.50,4.64,–
Cc1c([N+](=O)[O-])cc2[nH]c(=O)c(=O)[nH]c2c1CN(C)C [Compound 1],4.483,1.5,"Ataxic (%) ([3]; 3 min, 10 mg/kg): 0%; Protected (%) ([3]; 3 min, 10 mg/kg): 40%; Ataxic (%) ([3]; 3 min, 30 mg/kg): 20%; Protected (%) ([3]; 3 min, 30 mg/kg): 60%; Ataxic (%) ([3]; 30 min, 10 mg/kg): 40%; Protected (%) ([3]; 30 min, 10 mg/kg): 60%; Ataxic (%) ([3]; 30 min, 30 mg/kg): 40%; Protected (%) ([3]; 30 min, 30 mg/kg): 80%"

# The next compounds have a lower IC50 [2] than those just listed; values first:
IC50 KA [1] [µM],IC50 [2] [µM],Structure (SMILES),also measured
5.128,1.26,Cc1c([N+](=O)[O-])cc2[nH]c(=O)c(=O)[nH]c2c1CNC1CCCCC1 [Compound 5],–
8.23,1.15,Cc1c([N+](=O)[O-])cc2[nH]c(=O)c(=O)[nH]c2c1CN(C)C(C)C [Compound 7],–
6.647,0.689,CCN(CC)Cc1c(C)c([N+](=O)[O-])cc2[nH]c(=O)c(=O)[nH]c12 [Compound 2],–
